Reference: patent US11633421B2, “Use of NAD precursors for improving maternal health and/or offspring health” (UNIVERSITY OF IOWA RESEARCH FOUNDATION, priority 2016, dated 2023)

Assays:
Format in all cases: in vivo, mice
[1] = Offspring body composition, brain mass and activity at weaning (Example 1)
Protocol: Female C57BL/6N mice were raised in 12 hour light:dark cycles on Teklad 2920X chow (NC). For 12 weeks prior to mating with a single C57BL/6N male, females were on either NC (n=4) or NC+NR (n=4). Females were maintained on the same diet through gestation and weaning, which was at 21 days after birth. […] The improved body composition of mice from NR-supplemented mothers was entirely unexpected.

[2] = Open field test of offspring
Protocol: The order of the bars from left to right are: males of normal chow (NC) mothers (white with light grey outline), followed by males of NR-supplemented mothers (filled light grey), followed by females of NC mothers (white with dark grey outline), followed by females of NR-supplemented mothers (filled dark grey). […] These adults were treated identically ever since weaning. The only difference is whether the mother was NR-supplemented for 21 days. They are faster and more adventurous. The order of the bars from left to right are: males of normal chow (NC) mothers (white with light grey outline), followed by males of NR-supplemented mothers (filled light grey), followed by females of NC mothers (white with dark grey outline), followed by females of NR-supplemented mothers (filled dark grey). At 15 days of age, it was observed that the offspring of NR-supplemented mothers were more physically active. In this experiment, the physical activity of male and female offspring of mothers supplemented or not with NR at 15 days of age was quantified. […] At 21 days, the offspring were removed from their mothers and put on normal chow […]. While offspring of NR could have been put on NR chow, we aimed to determine if the 21 day intervention to their mothers was sufficient for a lasting effect on their neurocognitive and/or physical development.

[3] = Post-partum NR supplementation: maternal body mass, food consumption, body composition; conditions: NR only after birth
Source text: FIGS. 6A-D. NR-supplemented mouse mothers lose weight during the 21 day lactation period without diminished food consumption (day 7-21). Delta body mass refers to day 21 post-partum maternal weight minus day 0 post-partum weight (FIG. 6A). Food consumption was day 7-21 (FIG. 6B). NR-supplemented mothers tend to lose fat (FIG. 6C) and maintain lean mass (FIG. 6D). Body composition refers to day 21 post-partum maternal fat and lean mass minus day 0 post-partum maternal fat and lean mass. A series of in vivo murine experiments were performed to evaluate whether maternally supplemented NR has the ability to improve maternal and neonatal health and development.

[4] = system: NAD biosynthetic genes in the mammary glands; assay: Mammary NAD biosynthetic gene expression and NAD metabolites
Source text: FIGS. 12A-D. Lactation and NR boost the mammary NAD program. FIG. 12A. NR promotes expression of NAD biosynthetic genes in the mammary glands. FIG. 12B. […] FIG. 12C. Lactation boosts NMN in mammary. FIG. 12D. Lactation and NR boost mammary NR in an additive manner. […] As shown in FIGS. 12B-12C, maternal NAD and NMN are elevated in the mammary of lactating mammary with respect to nonlactating mammary tissue.

**Q.** For `NC(=O)c1ccc[n+]([C@@H]2O[C@H](CO)[C@@H](O)[C@H]2O)c1` [NR, nicotinamide riboside], which “physical activity of fasted neonates” value ([1]; NR in the diet of female mice) is on record?
**A.** greater physical activity

**Q.** What about the “body composition (fat mass) of mice raised by NR-supplemented mothers” value ([1]; at weaning) of the same compound?
**A.** leaner

**Q.** What about the “brain mass of mice raised by NR-supplemented mothers” value ([1]; at weaning) of the same compound?
**A.** tend toward larger brains

**Q.** What about the “physical activity in open field test” value ([2]; 15 days of age, first 5 minutes) of the same compound?
**A.** much more physically active

**Q.** And the “time in the center of the open field test” value ([2]; 15 days of age, males, middle 5 minute epoch)?
**A.** significant amount of time in the center

**Q.** And the “time in the center of open field test” value ([2]; 70 day-old adult males)?
**A.** less time in the center

**Q.** What about the “immobile time in open field test” value ([2]; 70 day-old adults) of the same compound?
**A.** tendency toward less immobile time

**Q.** And the “speed in open field test” value ([2]; 70 day-old adults)?
**A.** move faster

**Q.** And the “distance covered in open field test” value ([2]; 70 day-old adults, 49 days after mother's intervention)?
**A.** cover more distance

**Q.** What about the maternal food consumption ([3]; day 7-21) of the same compound?
**A.** as least as much as non-supplemented mothers

**Q.** What about the maternal body weight ([3]; day 21 minus day 0 post-partum) of the same compound?
**A.** lost significant weight

**Q.** What about the maternal fat mass ([3]; day 21 minus day 0 post-partum) of the same compound?
**A.** lost significant weight, specifically in fat mass

**Q.** And the maternal lean mass ([3]; day 21 minus day 0 post-partum)?
**A.** maintained their lean mass

**Q.** What about the “mammary NR” value ([4]; lactating female mouse, above level in lactating female) of the same compound?
**A.** large increase

**Q.** And the “mammary NAD+ levels” value ([4]; lactating mammary gland, NR supplementation)?
**A.** tends to further increase

**Q.** What about the “expression of NAD biosynthetic genes in lactating mammary” value ([4]; mother supplemented with NR) of the same compound?
**A.** very high level of expression
